US12139487B2, “Compounds and uses thereof” (Foghorn Therapeutics Inc., priority 2022, dated 2024)

What was measured:
[1] = target: T1, BRG-1 (Homo sapiens, UniProt P51532); assay: ATPase catalytic activity assay (ADP-Glo), BRG-1; assay type: biochemical; settings: Table 10, read-out: BRG1 IC50
T1 construct: made in house; host or cells: High Five insect cells
Method: (§1) The ATPase catalytic activity of BRM or BRG-1 was measured by an in vitro biochemical assay using ADP-Glo™ (Promega, V9102). The ADP-Glo™ kinase assay is performed in two steps once the reaction is complete. The first step is to deplete any unconsumed ATP in the reaction. The second step is to convert the reaction product ADP to ATP, which will be utilized by the luciferase to generate luminesce and be detected by a luminescence reader, such as Envision.
Then, following addition of 5 μL of ADP-Glo™ Reagent provided in the kit, the reaction incubates at room temperature for 40 minutes. Then, 10 μL of Kinase Detection Reagent provided in the kit is added to convert ADP to ATP, and the reaction incubates at room temperature for 60 minutes. Finally, luminescence measurement is collected with a plate-reading luminometer, such as Envision.

[2] = target: T2, BRM (Homo sapiens, UniProt P51531); assay: ATPase catalytic activity assay (ADP-Glo), BRM; assay type: biochemical; settings: Table 10; for Ratio (BRG1 IC50 (μM) divided by BRM IC50 (μM)): ATPase assay, selectivity BRG1/BRM; for IC50: ATPase catalytic activity assay (ADP-Glo)
T2 construct: made in house; host or cells: High Five insect cells
Method: as §1
The assay reaction mixture […] contains 30 nM of BRM or BRG-1, 20 nM salmon sperm DNA (from Invitrogen, UltraPure™ Salmon Sperm DNA Solution, cat #15632011), and 400 μM of ATP in the ATPase assay buffer, which comprises of 20 mM Tris, pH 8, 20 mM MgCl2, 50 mM NaCl, 0.1% Tween-20, and 1 mM fresh DTT (Pierce™ DTT (Dithiothreitol), cat #20290). The reaction is initiated by the addition of the 2.5 μL ATPase solution to 2.5 μL ATP/DNA solution on low volume white Proxiplate-384 plus plate (PerkinElmer, cat #6008280) and incubates at room temperature for 1 hour. Then, following addition of 5 μL of ADP-Glo™ Reagent provided in the kit, the reaction incubates at room temperature for 40 minutes. Then, 10 μL of Kinase Detection Reagent provided in the kit is added to convert ADP to ATP, and the reaction incubates at room temperature for 60 minutes. Finally, luminescence measurement is collected with a plate-reading luminometer, such as Envision.

T1 sequence (P51532 whole entry): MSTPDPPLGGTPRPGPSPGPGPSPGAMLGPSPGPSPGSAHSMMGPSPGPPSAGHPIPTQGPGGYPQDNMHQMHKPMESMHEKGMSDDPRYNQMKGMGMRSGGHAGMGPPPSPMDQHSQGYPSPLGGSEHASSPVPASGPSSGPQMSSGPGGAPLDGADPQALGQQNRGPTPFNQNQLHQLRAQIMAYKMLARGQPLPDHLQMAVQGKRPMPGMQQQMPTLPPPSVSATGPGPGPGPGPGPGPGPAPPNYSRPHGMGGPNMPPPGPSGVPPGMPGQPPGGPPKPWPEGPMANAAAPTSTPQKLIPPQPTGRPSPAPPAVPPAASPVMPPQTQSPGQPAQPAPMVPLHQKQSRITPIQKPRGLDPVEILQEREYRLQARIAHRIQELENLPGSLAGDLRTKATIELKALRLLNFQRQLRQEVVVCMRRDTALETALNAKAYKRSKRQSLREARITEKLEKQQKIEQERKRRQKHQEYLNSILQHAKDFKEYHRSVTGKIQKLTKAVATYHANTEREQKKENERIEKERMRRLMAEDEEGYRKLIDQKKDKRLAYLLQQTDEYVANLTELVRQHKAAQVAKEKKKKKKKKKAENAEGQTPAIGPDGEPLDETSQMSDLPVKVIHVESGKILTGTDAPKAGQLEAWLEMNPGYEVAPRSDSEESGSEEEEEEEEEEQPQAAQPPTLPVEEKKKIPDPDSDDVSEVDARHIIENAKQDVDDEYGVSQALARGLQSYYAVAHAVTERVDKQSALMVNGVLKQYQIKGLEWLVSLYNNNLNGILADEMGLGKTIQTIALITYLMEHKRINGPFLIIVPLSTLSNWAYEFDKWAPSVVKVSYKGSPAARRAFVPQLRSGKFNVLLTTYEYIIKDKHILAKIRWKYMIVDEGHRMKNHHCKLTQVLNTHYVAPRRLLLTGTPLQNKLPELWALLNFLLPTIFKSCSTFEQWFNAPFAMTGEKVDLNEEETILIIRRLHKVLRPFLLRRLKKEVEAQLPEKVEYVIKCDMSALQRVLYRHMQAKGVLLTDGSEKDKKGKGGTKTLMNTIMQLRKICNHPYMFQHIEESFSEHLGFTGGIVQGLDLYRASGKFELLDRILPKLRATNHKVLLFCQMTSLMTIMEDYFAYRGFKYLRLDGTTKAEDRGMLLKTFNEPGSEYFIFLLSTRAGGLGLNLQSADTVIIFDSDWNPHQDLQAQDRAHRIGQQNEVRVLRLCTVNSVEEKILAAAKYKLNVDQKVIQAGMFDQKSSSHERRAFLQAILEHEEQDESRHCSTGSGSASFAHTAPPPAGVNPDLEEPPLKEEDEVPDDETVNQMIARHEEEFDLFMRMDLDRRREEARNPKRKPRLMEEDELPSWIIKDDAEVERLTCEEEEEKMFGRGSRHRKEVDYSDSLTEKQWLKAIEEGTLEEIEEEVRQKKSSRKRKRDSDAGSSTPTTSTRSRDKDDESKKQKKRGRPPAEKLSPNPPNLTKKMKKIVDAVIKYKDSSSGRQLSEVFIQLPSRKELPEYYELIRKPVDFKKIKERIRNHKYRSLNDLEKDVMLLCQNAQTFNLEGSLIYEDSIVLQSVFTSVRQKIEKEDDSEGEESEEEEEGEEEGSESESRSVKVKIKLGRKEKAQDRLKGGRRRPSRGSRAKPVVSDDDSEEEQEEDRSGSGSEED
T2 sequence (P51531 whole entry): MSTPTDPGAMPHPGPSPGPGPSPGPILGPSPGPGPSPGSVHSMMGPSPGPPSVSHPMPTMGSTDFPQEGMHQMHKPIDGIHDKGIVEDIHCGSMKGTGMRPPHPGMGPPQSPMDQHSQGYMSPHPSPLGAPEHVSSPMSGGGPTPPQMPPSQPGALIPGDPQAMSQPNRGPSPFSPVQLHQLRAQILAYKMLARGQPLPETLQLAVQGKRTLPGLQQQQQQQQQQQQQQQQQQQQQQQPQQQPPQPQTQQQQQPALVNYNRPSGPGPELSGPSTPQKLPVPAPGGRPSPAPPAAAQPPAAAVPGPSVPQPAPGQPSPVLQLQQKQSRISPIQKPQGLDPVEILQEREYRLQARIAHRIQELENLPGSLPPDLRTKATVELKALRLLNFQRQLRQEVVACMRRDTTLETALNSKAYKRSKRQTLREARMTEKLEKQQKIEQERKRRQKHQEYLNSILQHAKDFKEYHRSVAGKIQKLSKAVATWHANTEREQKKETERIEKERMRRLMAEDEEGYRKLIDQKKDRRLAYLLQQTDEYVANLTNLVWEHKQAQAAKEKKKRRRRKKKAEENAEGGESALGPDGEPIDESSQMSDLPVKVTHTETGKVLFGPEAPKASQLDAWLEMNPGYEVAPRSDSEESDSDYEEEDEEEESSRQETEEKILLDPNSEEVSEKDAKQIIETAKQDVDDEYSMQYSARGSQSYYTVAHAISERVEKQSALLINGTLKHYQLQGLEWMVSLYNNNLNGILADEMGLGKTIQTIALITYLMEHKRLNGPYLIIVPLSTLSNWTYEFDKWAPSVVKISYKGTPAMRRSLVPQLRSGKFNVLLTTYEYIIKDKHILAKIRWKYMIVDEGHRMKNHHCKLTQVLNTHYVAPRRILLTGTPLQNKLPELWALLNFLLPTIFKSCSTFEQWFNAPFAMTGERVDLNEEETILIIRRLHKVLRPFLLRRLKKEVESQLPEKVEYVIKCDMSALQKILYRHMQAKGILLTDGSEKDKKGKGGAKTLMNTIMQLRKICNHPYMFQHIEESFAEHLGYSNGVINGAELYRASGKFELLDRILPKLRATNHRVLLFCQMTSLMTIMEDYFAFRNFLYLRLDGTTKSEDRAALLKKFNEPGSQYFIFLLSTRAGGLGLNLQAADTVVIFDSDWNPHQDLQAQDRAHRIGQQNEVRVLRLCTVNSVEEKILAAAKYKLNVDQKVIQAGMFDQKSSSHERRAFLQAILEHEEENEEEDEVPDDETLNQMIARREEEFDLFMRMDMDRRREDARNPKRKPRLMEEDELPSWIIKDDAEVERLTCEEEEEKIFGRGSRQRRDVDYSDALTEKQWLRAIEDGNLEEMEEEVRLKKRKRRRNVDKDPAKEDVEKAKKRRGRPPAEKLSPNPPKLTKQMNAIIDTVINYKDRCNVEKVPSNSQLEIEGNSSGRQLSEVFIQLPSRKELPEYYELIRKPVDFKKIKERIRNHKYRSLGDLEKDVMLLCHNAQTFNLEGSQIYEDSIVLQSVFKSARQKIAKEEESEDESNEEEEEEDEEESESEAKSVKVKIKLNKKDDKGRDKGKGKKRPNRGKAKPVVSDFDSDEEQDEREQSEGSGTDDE

Row | IC50 [1] [nM] | Ratio (BRG1 IC50 (μM) divided by BRM IC50 (μM)) [2] | IC50 [2] [nM] | SMILES
1 | 199 | 22.51 | 8.8 | O=C(NCc1cc2cc(-c3cccc([C@@H]4CC4(F)F)n3)ccc2cn1)c1cc(F)c2c(c1)S(=O)(=O)[C@@H](F)CCO2 [Compound 268]
2 | 68 | 22.96 | 3.1 | CCc1cnc2c(c1)OCCN2c1ccc2cnc(CNC(=O)c3cc(F)c4c(c3)S(=O)(=O)[C@@H](F)CCO4)cc2n1 [Compound 82]
3 | 79.8 | 11.79 | 7 | C[C@@H]1CN(c2cccc(-c3ccc4cnc(CNC(=O)c5cc(F)c6c(c5)S(=O)(=O)[C@H](F)CO[C@@H]6C)cc4n3)n2)C[C@H](C)O1 [Compound 222]
4 | 74.1 | 13.09 | 5.5 | O=C(NCc1cc2nc(N3CCCc4cc(N5CCOCC5)cnc43)ccc2cn1)c1cc(F)c2c(c1)S(=O)(=O)[C@@H](F)CCO2 [Compound 172]
5 | 113 | 22.67 | 5.6 | COc1nc(C(F)F)ccc1-c1ccc2cnc(CNC(=O)c3cc(F)c4c(c3)S(=O)(=O)[C@@H](F)CCO4)cc2n1 [Compound 177]
6 | 88 | 19.80 | 5 | O=C(NCc1cc2nc(-c3csnc3OC(F)F)ccc2cn1)c1cc(F)c2c(c1)S(=O)(=O)[C@@H](F)CCO2 [Compound 155]
7 | 87.1 | 21.61 | 4 | O=C(NCc1cc2nc(-c3cccc(N4CCC4)n3)ccc2cn1)c1cc(F)c2c(c1)S(=O)(=O)[C@@H](F)CCO2 [Compound 117]
8 | 33.9 | 16.77 | 2 | O=C(NCc1cc2nc(N3CCOc4cc(C5CC5)cnc43)ccc2cn1)c1ccc2c(c1)S(=O)(=O)[C@@H](F)CCO2 [Compound 38]
9 | 67 | 23.82 | 2.8 | O=C(NCc1cc2cc(-c3cncc(C4CC4)n3)ccc2cn1)c1cc(F)c2c(c1)S(=O)(=O)[C@@H](F)COC2 [Compound 77]
10 | 39.6 | 12.79 | 2.7 | O=C(NCc1cc2nc(N3CCOc4cc(C5(C(F)F)CC5)cnc43)ccc2cn1)c1cc(F)c2c(c1)S(=O)(=O)[C@@H](F)CCO2 [Compound 70]
11 | 185 | 19.83 | 7.6 | C[C@H](NC(=O)c1cc(F)c2c(c1)S(=O)(=O)[C@@H](F)CCO2)c1cc2nc(N3CCOc4cc(C5CC5)cnc43)ccc2cn1 [Compound 240]
12 | 69.2 | 11.72 | 5.9 | CCCc1ccnc2c1OCCN2c1ccc2cnc(CNC(=O)c3cc(F)c4c(c3)S(=O)(=O)[C@@H](F)CCO4)cc2n1 [Compound 194]
13 | 288 | 34.05 | 8.5 | C[C@H](NC(=O)c1cc(F)c2c(c1)S(=O)(=O)[C@@H](F)COC2)c1cc2nc(N3CCOc4ccc(C(F)F)nc43)ccc2cn1 [Compound 260]
14 | 118 | 29.13 | 4 | O=C(NCc1cc2nc(-c3cccc(C4CC4)n3)ccc2cn1)c1cc(F)c2c(c1)S(=O)(=O)[C@@H](F)COC2 [Compound 114]
15 | 110 | 21.73 | 5.7 | O=C(NCc1cc2nc(N3CCOc4ccc(C(F)F)nc43)ccc2cn1)c1cc(F)c2c(c1)S(=O)(=O)[C@@H](F)CCO2 [Compound 185]
16 | 108 | 14.53 | 7.1 | O=C(NCc1cc2nc(-c3ccnc(N4CCC4)n3)ccc2cn1)c1cc(F)c2c(c1)S(=O)(=O)[C@@H](F)COC2 [Compound 228]
17 | 49.3 | 12.83 | 5.6 | C[C@@H]1CCN1c1cnc2c(c1)OCCN2c1ccc2cnc(CNC(=O)c3cc(C(F)F)c4c(c3)S(=O)(=O)[C@@H](F)COC4)cc2n1 [Compound 175]
18 | 69.4 | 15.35 | 3.9 | C#Cc1ccc2c(n1)N(c1ccc3cnc(CNC(=O)c4cc(F)c5c(c4)S(=O)(=O)[C@@H](F)CCO5)cc3n1)CCO2 [Compound 110]

Row | IC50 [1] [nM] | Ratio (BRG1 IC50 (μM) divided by BRM IC50 (μM)) [2] | IC50 [2] [nM] | SMILES
19 | 344 | 35.16 | 9.8 | COc1ccc(-c2ccc3cnc(CNC(=O)c4cc(Cl)c5c(c4)S(=O)(=O)[C@@H](F)COC5)cc3n2)nc1[C@@H]1CC1(F)F [Compound 294]
20 | 266 | 29.64 | 9.9 | O=C(NCc1cc2nc(-c3cccc(OC(F)F)c3)ccc2cn1)c1cc(F)c2c(c1)S(=O)(=O)[C@@H](F)COC2 [Compound 297, (2R)—N-[[2-[3-(difluoromethoxy)phenyl]-1,6-naphthyridin-7-yl]methyl]-2,6-difluoro-1,1-dioxo-3,5-dihydro-2H-4,1λ6-benzoxathiepine-8-carboxamide]
21 | 22.3 | 14.89 | 1.3 | O=C(NCc1cc2nc(N3CCOc4cc(C5CC5)cnc43)ccc2cn1)c1cc(F)c2c(c1)S(=O)(=O)[C@@H](F)COC2 [Compound 8]
22 | 89.3 | 13.76 | 6.5 | CO[C@@H]1C[C@H]1N(C)c1cccc(-c2ccc3cnc(CNC(=O)c4cc(F)c5c(c4)S(=O)(=O)[C@@H](F)COC5)cc3n2)n1 [Compound 215]
23 | 51.2 | 15.80 | 3.2 | [2H]C1([2H])Oc2c(F)cc(C(=O)NCc3cc4nc(N5CCOc6cc(C7CC7)cnc65)ccc4cn3)cc2S(=O)(=O)[C@]([2H])(F)C1([2H])[2H] [Compound 90]
24 | 164 | 13.90 | 11.8 | O=C(NCc1cc2nc(N3CCOc4cc(N5CC[C@H]5CF)cnc43)ccc2cn1)c1cc(Br)c2c(c1)S(=O)(=O)[C@@H](F)CCO2 [Compound 323]
25 | 69.9 | 20.37 | 3.1 | O=C(NCc1cc2nc(-c3ccc(OC(F)F)c(C4CC4)n3)ccc2cn1)c1cc(F)c2c(c1)S(=O)(=O)[C@@H](F)COC2 [Compound 85]
26 | 71.7 | 11.71 | 6.1 | O=C(NCc1cc2nc(N3CCOc4cc(N5CCC(F)CC5)cnc43)ccc2cn1)c1cc(F)c2c(c1)S(=O)(=O)[C@@H](F)CCO2 [Compound 204]
27 | 123 | 31.77 | 3.5 | COc1nc([C@H](F)CF)ccc1-c1ccc2cnc(CNC(=O)c3cc(F)c4c(c3)S(=O)(=O)[C@@H](F)CCO4)cc2n1 [Compound 98]
28 | 1080 | 43.60 | 24.9 | C#Cc1cc(C(=O)NCc2cc3nc(-c4cccc(N5C[C@@H](C)O[C@@H](C)C5)n4)ccc3cn2)cc2c1OCC[C@@H](F)S2(=O)=O [Compound 315]
29 | 25.2 |  | 0.8 | [2H]C1([2H])OC([2H])([2H])[C@H](F)S(=O)(=O)c2cc(C(=O)NCc3cc4nc(N5CCOc6cc(C7CC7)cnc65)ccc4cn3)cc(F)c21 [Compound 3]
30 | 294 | 29.78 | 8.9 | COCCOc1cnc2c(c1)CCCN2c1ccc2cnc(CNC(=O)c3cc(F)c4c(c3)S(=O)(=O)[C@@H](F)CCO4)cc2n1 [Compound 271]
31 | 102 | 13.44 | 7 | C[C@H]1C[C@@H]1c1cnc2c(c1)OCCN2c1ccc2cnc(CNC(=O)c3cc(F)c4c(c3)S(=O)(=O)[C@@H](F)CCO4)cc2n1 [Compound 223]
32 | 98.5 | 21.43 | 4.7 | COc1nc(-c2ccc3cnc(CNC(=O)c4cc(F)c5c(c4)S(=O)(=O)[C@@H](F)CCO5)cc3n2)ccc1C(F)F [Compound 143]
33 | 65.7 | 17.66 | 3.4 | CO[C@H]1CN(c2cccc(-c3ccc4cnc(CNC(=O)c5cc(F)c6c(c5)S(=O)(=O)[C@@H](F)CCO6)cc4n3)n2)C[C@@H]1F [Compound 97]
34 | 166 | 19.49 | 8.5 | O=C(NCc1cc2nc(N3CCCc4c(OC5CC5)ncc(F)c43)ccc2cn1)c1cc(F)c2c(c1)S(=O)(=O)[C@@H](F)CCO2 [Compound 262]
35 | 59.9 | 10.62 | 5.6 | O=C(NCc1cc2cc(-c3ccc(OC(F)F)c(C4CC4)n3)ccc2cn1)c1cc(F)c2c(c1)S(=O)(=O)[C@@H](F)CCO2 [Compound 179]
